The star is where a group is joined. Cbz = O=C(OCc1ccccc1)*; CH2F = FC*
Experiments:
JURKAT T lymphoma cells = experiment: Fas response of JURKAT T lymphoma cells; type: cell-based; settings: 50 μM
[1] = test system: activated (CD3/CD28 cross-linked) normal human T cells; experiment: Apoptosis by Annexin V staining and flow cytometry, activated normal T cells; type: cell-based; settings: 50 μM, 18 hours
Procedure: (§1) FIG. 4 is a pair of graphs showing the effect of […] on various cell lines, as determined by Annexin V staining and flow cytometry. The cells included the B-cell precursor ALL cell lines […], and NALM-6, the RAMOS, RAJI, and DAUDI Burkitt lymphoma cell lines, the CCRF-CEM, JURKAT, and H9 T lymphoma cell lines, the K-562 erythroleukemia cell line, and resting or activated (i.e., CD3/CD28 cross-linked) normal human T cells. […] Flow cytometry. Quantitation of apoptotic events was conducted using a FACS Calibur (BD Immunocytometry Systems). All analyses were conducted on cells with lymphoid light scatter characteristics (i.e., low to medium forward scatter and low 90° side scatter). iii. Annexin V. […] Cells were stained according to the manufacturers recommendations.

H9 T lymphoma cell line = experiment: Apoptosis by Annexin V staining and flow cytometry, H9; type: cell-based; settings: H9, 50 μM, 18 hours
Procedure: as §1

BLIN-3 cells = experiment: Apoptosis by Annexin V staining and flow cytometry, BLIN-3; type: cell-based, human
Procedure: (§2) Flow cytometry. Quantitation of apoptotic events was conducted using a FACS Calibur (BD Immunocytometry Systems). All analyses were conducted on cells with lymphoid light scatter characteristics (i.e., low to medium forward scatter and low 90° side scatter).
(§3) iii. Annexin V. FITC-labeled Annexin V (BD Pharmingen, San Diego, Calif.) was used to detect external phosphatidylserine residues appearing on the external surface of early apoptotic cells (Koopman Blood. 1994;84:1415-1420). Cells were stained according to the manufacturers recommendations.
(§4) General experimental strategy. BLIN cell lines were removed from fibroblast monolayers, washed once and resuspended to 7.5×10^5/ml in X-VIVO 10. Two hundred μL of resuspended cells were added to 96-well flat-bottom microtiter plates (ISC Bioexpress, Kaysville, Vt.), followed by 0.5-1.0 μL of caspase inhibitors in DMSO. An identical volume of DMSO alone was added to separate wells as a vehicle control. This final DMSO concentration of 0.25-0.5% vol/vol had no adverse affect on any of the BLIN cell lines. At the indicated times the entire content of individual wells was harvested and stained in the fluorescent protocols described above.
The inventors carried out experiments to test the influence of specific amino acid substitutions on the proapoptotic activity Z-LEHD-fmk. Cells were cultured for 24 hours with various μM concentrations of Z-LEDH-fmk or single amino acid substitution of the parent peptide. All values in the following Table 3 represent the percentage of total Annexin V+ cells (PI+ and PI−) minus the percentage present in culture with DMSO alone (BLIN-2=3%; BLIN-3+7%; BLIN4L=5%).

BLIN cell lines = experiment: Enhancement of apoptosis in BLIN cell lines (flow cytometry); type: cell-based, human
Procedure: as §2
i. Mitochondrial transmembrane potential (Δψm). The cationic lipophilic fluorescent dye tetramethylrhodamine, ethyl ester, perchlorate (TMRE) was purchased from Molecular Probes, Inc. (Eugene, Oreg.). TMRE has a high degree of membrane permeability and accumulates into mitochondria in accord with the Nernstian equation (Farkas Biophys J. 1989;56:1053-1069). Cells were washed once and re-suspended to 0.5-1.0×10^6/ml in X-VIVO 10. TMRE was added to a final concentration of 50 nM and the cells were incubated in the dark at 37° C. for 15 minutes. Cells were then washed 2× in PBS, resuspended in PBS containing 2 μg/ml of propidium iodide (PI), and immediately analyzed. The protonophore […] (50 μM, CCCP, Sigma) was used as a positive control to effect loss of Δψm in 100% of cells.
ii. YO-PRO-1. The green fluorescent DNA intercalant dye YO-PRO-1 (Idziorek J Immunol Methods. 1995;185:249-258) was purchased from Molecular Probes as the Vybrant Apoptosis Assay Kit #4. Dual staining with YO-PRO and PI allows for the detection of early apoptotic cells (YO-PRO+/PI−) that have undergone initial changes in permeability to small molecules. Cells were stained according to the manufacturers recommendations.
as §3, §4

[2] = test system: JURKAT T lymphoma cell line; experiment: Apoptosis by Annexin V staining and flow cytometry, JURKAT; type: cell-based; settings: 50 μM, 18 hours
Procedure: as §1

leukemic cell lines = experiment: Staurosporine response of panel of leukemic cell lines, Annexin V; type: cell-based; settings: staurosporine plus 50 μM C9i; leukemic cells that responded to C9i alone
Procedure: as §1, with “recommendations. The inventors expanded their analysis of […] to other leukemic cell lines. […] The JURKAT T lymphoma cell line was also sensitive. In contrast, the RAJI and DAUDI Burkitt lymphoma cell lines, the H9 T lymphoma cell line, and the K-562 erythroleukemia cell line were insensitive to […]. […] The inventors also tested whether […] would potentiate the apoptotic effect of the widely used serine/threonine kinase inhibitor staurosporine. […] Thus, the leukemic cell lines were generally responsive to both […] and staurosporine, or responsive to neither.” for “recommendations.”

## Z-LEHD-fmk (Cbz-LEHD-CH2F; SMILES CC(C)C[C@H](NC(=O)OCc1ccccc1)C(=O)N[C@@H](CCC(=O)O)C(=O)N[C@@H](Cc1c[nH]cn1)C(=O)N[C@@H](CC(=O)O)C(=O)CF) [C9i]
JURKAT T lymphoma cells
  Fas response of JURKAT T lymphoma cells: blocked the Fas response
[1]
  sensitivity (fold-increase in Annexin V+ cells vs DMSO): marginally sensitive
H9 T lymphoma cell line
  sensitivity (fold-increase in Annexin V+ cells vs DMSO): insensitive
BLIN-3 cells; BLIN-3, 50 μM, 18 hours
  sensitivity (fold-increase in Annexin V+ cells vs DMSO): sensitive
BLIN-3 cells; BLIN-3 removed from adherent fibroblasts, 50 μM, 2-hour time points up to 8 hours
  apoptosis (Annexin V and TMRE staining) versus DMSO vehicle: pronounced enhancement of apoptosis
BLIN cell lines
  lowest concentration at which enhancement of apoptosis occurred: 6.25 µM
BLIN cell lines; BLIN-3 and BLIN-4L maintained on adherent fibroblasts and/or IL-7, 8 hours
  promotion of apoptosis in healthy cells: did not promote apoptosis
BLIN cell lines; BLIN-3 and BLIN-4L maintained on adherent fibroblasts and/or IL-7, 18 hours
  promotion of apoptosis in healthy cells: promoted apoptosis
[2]
  sensitivity (fold-increase in Annexin V+ cells vs DMSO): sensitive
Leukemic cell lines
  potentiation of the apoptotic effect of staurosporine: enhanced the staurosporine response

— patent US20060040870A1, “Enhancement of apoptosis by caspase-9 inhibitors” (priority 2004, published 2006)
